Results reported in ChEMBL document CHEMBL5537181 (J Med Chem, 2024).
Active and inactive are the calls of the source.

Legend:
Format in all cases: functional, organism-based
Rattus norvegicus [1] = test: Analgesic activity in Chronic constriction injury rat model assessed as increase in paw withdrawal latency at 30 mg/kg,po administration and measured for 0.5 to 48 hrs; settings: time 0.5-48 hrs
Rattus norvegicus [2] = test: Analgesic activity in Chronic constriction injury rat model assessed as increase in paw withdrawal threshold at 30 mg/kg,po administration and measured for 0.5 to 48 hrs; settings: time 0.5-48 hrs
Rattus norvegicus [3] = test: Antinociceptive activity in Chronic constriction injury rat model assessed as reduction in pain at 5 mg/kg,IM administration and measured after 2 hrs
Rattus norvegicus [4] = test: Analgesic activity in Chronic constriction injury rat model assessed as increase in paw withdrawal threshold at 5 mg/kg,IM administration and measured for 0.5 to 48 hrs; settings: time 0.5-48 hrs
Rattus norvegicus [5] = test: Analgesic activity in Chronic constriction injury rat model assessed as increase in paw withdrawal latency at 5 mg/kg,IM administration and measured for 0.5 to 48 hrs; settings: time 0.5-48 hrs
Rattus norvegicus [6] = test: Antinociceptive activity in Chronic constriction injury rat model assessed as reduction in pain at 5 mg/kg,IM administration and measured after 12 hrs

Measured: Activity

CC(C)C[C@H](CN)CC(=O)O
active: Rattus norvegicus [1] | Rattus norvegicus [2]

CN1CC[C@]23c4c5ccc(O)c4O[C@H]2[C@@H](O)C=C[C@H]3[C@H]1C5
active: Rattus norvegicus [3] | Rattus norvegicus [4] | Rattus norvegicus [5] | Rattus norvegicus [6]
